In PubChem BioAssay (NCI):
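Each compound was tested at five concentrations against cells in 96-well plates for 48 hours. TGI marks complete inhibition of growth.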

Key:
Experiment in all cases: DTP human tumour cell line panel, 48 h
[1] = test system: OVCAR-4 ovarian
[2] = test system: SNB-19 CNS
[3] = test system: SK-OV-3 ovarian
[4] = test system: HOP-62 NSCLC
[5] = test system: MALME-3M melanoma
[6] = test system: CAKI-1 renal
[7] = test system: HS 578T breast
[8] = test system: COLO 205 colon
[9] = test system: NCI-H23 lung
[10] = test system: SNB-75 CNS
[11] = test system: MCF7 breast
[12] = test system: MOLT-4 leukemia
[13] = test system: K-562 leukemia
[14] = test system: OVCAR-5 ovarian
[15] = test system: NCI-H226 lung
[16] = test system: PC-3 prostate
[17] = test system: SN12C renal
[18] = test system: HOP-92 NSCLC
[19] = test system: SF-295 CNS
[20] = test system: DU-145 prostate
[21] = test system: M14 melanoma
[22] = test system: EKVX NSCLC
[23] = test system: NCI/ADR-RES ovarian
[24] = test system: UO-31 renal
[25] = test system: SR leukemia
[26] = test system: SK-MEL-28 melanoma
[27] = test system: UACC-62 melanoma
[28] = test system: KM12 colon
[29] = test system: LOX IMVI melanoma
[30] = test system: TK-10 renal
[31] = test system: HL-60(TB) leukemia
[32] = test system: UACC-257 melanoma
[33] = test system: U251 CNS
[34] = test system: MDA-MB-231 breast
[35] = test system: MDA-MB-435
[36] = test system: IGROV1 ovarian
[37] = test system: HT29 colon
[38] = test system: HCC-2998 colon
[39] = test system: RXF 393 renal
[40] = test system: SF-268 CNS
[41] = test system: SK-MEL-2 melanoma
[42] = test system: NCI-H522 lung
[43] = test system: MDA-N
[44] = test system: HCT-116 colon
[45] = test system: SF-539 CNS
[46] = test system: A549 NSCLC
[47] = test system: NCI-H460 lung
[48] = test system: ACHN renal
[49] = test system: CCRF-CEM leukemia
[50] = test system: SK-MEL-5 melanoma
[51] = test system: A498 renal
[52] = test system: SW-620 colon
[53] = test system: T-47D breast
[54] = test system: HCT-15 colon
[55] = test system: OVCAR-8 ovarian
[56] = test system: 786-0 renal
[57] = test system: BT-549 breast
[58] = test system: OVCAR-3 ovarian

Molecule Cc1ccc(NC(=O)c2cccc(OP(=O)(Nc3ccc(C)cc3)Nc3ccc(C)cc3)c2)cc1 has a TGI [1] of 61.9 µM, a TGI [2] of over 100 µM and a TGI [3] of over 100 µM. The TGI [4] was over 100 µM, the TGI [5] was 39.6 µM and the TGI [6] was over 100 µM. For the same molecule, the TGI [7] was 79.9 µM, the TGI [8] was 5.27 µM and the TGI [9] was over 100 µM. The TGI [10] was 30.6 µM, the TGI [11] was over 100 µM and the TGI [12] was 6.37 µM. It also gave a TGI [13] of over 100 µM, a TGI [14] of over 100 µM and a TGI [15] of 63.6 µM. For the same molecule, the TGI [16] was over 100 µM, the TGI [17] was over 100 µM and the TGI [18] was 8.93 µM. The TGI [19] was over 100 µM, the TGI [20] was over 100 µM and the TGI [21] was 9.08 µM. It also gave a TGI [22] of over 100 µM, a TGI [23] of over 100 µM and a TGI [24] of 45.3 µM. For the same molecule, the TGI [25] was 17.1 µM, the TGI [26] was over 100 µM and the TGI [27] was over 100 µM. The TGI [28] was over 100 µM, the TGI [29] was over 100 µM and the TGI [30] was 83.4 µM. For the same molecule, the TGI [31] was over 100 µM, the TGI [32] was over 100 µM and the TGI [33] was over 100 µM. For the same molecule, the TGI [34] was 16.1 µM, the TGI [35] was over 100 µM and the TGI [36] was over 100 µM. For the same molecule, the TGI [37] was 14.9 µM, the TGI [38] was over 100 µM and the TGI [39] was 6.75 µM. It also gave a TGI [40] of over 100 µM, a TGI [41] of over 100 µM and a TGI [42] of 12 µM. The TGI [43] was 21.7 µM, the TGI [44] was 80.8 µM and the TGI [45] was over 100 µM. It also gave a TGI [46] of 27.2 µM, a TGI [47] of over 100 µM and a TGI [48] of 20.6 µM. For the same molecule, the TGI [49] was over 100 µM, the TGI [50] was over 100 µM and the TGI [51] was 62.3 µM. The TGI [52] was over 100 µM, the TGI [53] was over 100 µM and the TGI [54] was over 100 µM. The TGI [55] was over 100 µM, the TGI [56] was over 100 µM and the TGI [57] was over 100 µM. It also gave a TGI [58] of over 100 µM.
